Data as given in the METLIN SMRT retention time set (Domingo-Almenara et al. 2019).

Experiment: gradient 5% acetonitrile 3 min, to 50% in 2 min, to 85% in 15 min, held 3 min, 100 µL/min
Conditions: column: Zorbax Extend-C18 2.1 x 50 mm; eluents: water / acetonitrile, 0.1% formic acid
Summary of the method: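 The system's dead and dwell volumes were 40 μL and 900 μL, with a Zorbax Extend-C18 column (2.1 × 50 mm, 1.8 μm) run at 100 μL/min in water and acetonitrile containing 0.1% formic acid each. Pure standards were analyzed in mixtures of ~100 molecules by HPLC–quadrupole time-of-flight mass spectrometry in positive and negative ionization mode. Retention time was assigned from computationally picked, manually inspected adduct peaks.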

Row | Compound | RP-LC retention time [s]
1 | CCN(C(=O)Cc1csc2nc(-c3ccccc3)cn12)c1ccccc1 | 852
2 | CCOc1ccc(-c2nc(C3CC(=O)N(c4ccc(C)cc4)C3)no2)cc1 (centres undefined) | 1070
3 | CCc1nc(-c2csc(S(=O)(=O)N3CCCC(C(=O)Nc4ccc(C)cc4Cl)C3)c2)no1 (centres undefined) | 1100
4 | CCOC(=O)c1c(C)c(CCC(=O)NCc2ccc3c(c2)OCO3)n(C)c1C | 836
5 | Cn1nccc1-c1cccc(-c2noc(-c3cccc(F)c3)n2)c1 | 1150
6 | CCOC(=O)c1nnn(C(CC)C(=O)Nc2ccc(OC)cc2)c1C(=O)OCC (centres undefined) | 814
7 | CCCc1nc(-c2c(C)cc(C)nc2NC(=O)COc2ccccc2)no1 | 946
8 | CCC1CCCCN1CCCNC(=O)C1=C(C)C(=O)OC12CCN(C(C)=O)CC2 (centres undefined) | 565
9 | N#Cc1cccc(NC(=O)C2CCN(S(=O)(=O)c3cc(C(=O)N4CCOCC4)cs3)CC2)c1 | 748
10 | CC(C)NC(=O)C1CCN(c2cncnc2N(C)C)CC1 | 580
11 | COc1cc(NC(=O)c2cnc(-c3ccccc3)nc2-c2ccncc2)cc(OC)c1 | 879
12 | COC(=O)C1C(O)CCC2CN3CCc4c([nH]c5ccccc45)C3CC21 (centres undefined) | 673
13 | COc1ccccc1CCC(=O)N1CCC2(CC1)NCc1ccccc1-n1ccnc12 | 623
14 | Cc1ccc(S(=O)(=O)N2C(=O)CCC2C(=O)NCc2nc(-c3ccc(Cl)cc3)no2)cc1 (centres undefined) | 951
15 | O=C1NCCCCCN(C(=O)c2cnccn2)[C@H]2CCC[C@@H]12 | 620
16 | O=C(c1ccc(Br)cc1)N1CC2C3CCC(O3)C2C1 (centres undefined) | 838
17 | Cc1ncsc1CN1CC(Oc2ccc(-c3noc(C4CC4)n3)cc2)C1 | 652
18 | Cn1cc(S(=O)(=O)NCc2cccs2)c(=O)n(C)c1=O | 635
19 | O=C([C@@H]1C[C@H](F)CN1S(=O)(=O)c1ccccc1F)N1CCCCC1 | 743
20 | Cc1ccsc1C(=O)N1CCC(Nc2ncnc3c2CCC3)CC1 | 778
21 | CCOc1ccc(S(=O)(=O)c2ccc(C)cc2)c2c1no[n+]2[O-] | 1050

Row | Compound | RP-LC retention time [s]
22 | Cc1cc(S(=O)(=O)N2CCCC(Cn3cnc4cccnc43)C2)ccc1Cl (centres undefined) | 866
23 | COc1ccc(F)cc1S(=O)(=O)N1CCC2(CCC(CN3CCN(C)CC3)O2)CC1 (centres undefined) | 601
24 | CCc1ccc(-c2nc(-c3ccc4nnc(C)n4c3)no2)cc1 | 1080
25 | COc1ccc(NC(=O)C2(C)CCCCC(=O)N2)cc1F (centres undefined) | 690
26 | O=C(C1CCN(c2cnn(Cc3ccccc3)c(=O)c2)CC1)N1CCCCC1 | 761
27 | Cc1ccc(N2CC(c3nc(-c4ccccc4F)no3)CC2=O)cc1C (centres undefined) | 1020
28 | Cn1nccc1-c1cccc(-c2noc(Cc3ccc(F)cc3)n2)c1 | 1040
29 | CCOc1ccc(-c2cc(SCc3cccnc3)ncn2)cc1 | 690
30 | COc1cc(NC(=O)Nc2ccc3nc(N4CCN(C)CC4)cc(C)c3c2)cc(OC)c1OC | 574
31 | Cc1cccc(CN2CC(c3noc(C4CCCN4CC4CC4)n3)C2)c1 (centres undefined) | 526
32 | O=C(C1CCN(S(=O)(=O)c2ccc(-c3noc(CCC4CCCC4)n3)cc2)CC1)N1CCCC1 | 1190
33 | CCn1cc(CC(=O)NCCOC)c2cccnc21 | 576
34 | COCCc1noc(COC2CCCN(C(=O)c3ccoc3)C2)n1 (centres undefined) | 668
35 | CCCN(C)C(=O)c1ccc(-n2cc(CNC(=O)C3CCC3)cn2)cc1 | 695
36 | O=C(c1ccsc1)N1CCC(n2c(C3CCCC3)nc3cccnc32)C1 (centres undefined) | 636
37 | CCC(Sc1nnc2n1CCN2c1ccc(OC)cc1)C(=O)OC (centres undefined) | 735
38 | COc1ccc(C2c3[nH]c4ccccc4c3CCN2C(=O)Cc2cccs2)cc1 (centres undefined) | 1110
39 | COC(=O)c1ccc2c(=O)n(-c3ccc(C)c(F)c3)c(N3CCSC3)nc2c1 | 1150
40 | COc1ccc(-c2ccnc3nc(-c4cccs4)nn23)cc1 | 892
41 | CCOCCCN1C(=O)CN(C2CCCCCC2)C(=O)C1c1ccc(OC)cc1 (centres undefined) | 902
42 | O=C(c1ccccc1Cl)N1CCCC(c2nnc(-c3cccs3)o2)C1 (centres undefined) | 775

Row | Compound | RP-LC retention time [s]
43 | O=C1CC(c2noc(-c3cc(Cl)ccc3F)n2)CN1c1ccc(F)cc1 (centres undefined) | 1100
44 | Cc1nc(C(=O)Nc2ccc(N3CCOCC3)cc2)c(C)n1C1CCN(C)CC1 | 555
45 | COc1ccc(Cl)cc1NS(=O)(=O)c1c(C)sc(C)c1-c1cc(C)[nH]n1 | 1040
46 | CCN1C(=O)COc2cc(-c3noc(C(=O)NC4CCCCC4)n3)ccc21 | 996
47 | COc1ccc(S(=O)(=O)Nc2cc(-c3cn4ccc(C)cc4n3)ccc2C)cc1 | 662
48 | Cc1ccc(CNC(=O)C2(C)CCCN(C(=O)Nc3cccc(C)c3C)C2)cc1 (centres undefined) | 978
49 | Cc1ccc(S(=O)(=O)CCc2nc3ccccc3n2CC(=O)O)cc1 | 607
50 | Nc1cc(C2CCN(C(=O)c3cccc(Br)c3)CC2)no1 | 709
51 | O=C(Oc1ccc(NC2=NS(=O)(=O)c3ccccc32)cc1)c1ccccc1 | 935
52 | CCC(C(=O)NCCc1cnc[nH]1)n1c2ccccc2c2cnn(C)c(=O)c21 (centres undefined) | 603
53 | CCOC(=O)C1=Cc2ccc(C(F)(F)C(F)(F)F)cc2N=C(N)C1 | 794
54 | COc1ccc(N2C(=O)CC(N3CCC(C)CC3)C2=O)cc1 (centres undefined) | 579
55 | O=C(NC1CCN(c2cc(-c3ccccc3)[nH]n2)C1)c1cc2ccccc2[nH]1 (centres undefined) | 739
56 | CN(C)CCn1nnc2cc(-c3noc(-c4ccccc4)n3)ccc21 | 651
57 | CCCCn1cc(S(=O)(=O)Nc2ccccc2C)c2cccnc21 | 985
58 | CC(=O)Nc1ccc(NC(=O)c2cc3sc(C)c(CN4CCCCC4)c3[nH]2)cc1 | 609
59 | CC(=O)N1CCC2(CC1)CC(CCO)CCO2 (centres undefined) | 575
60 | COc1ccc(Cl)cc1S(=O)(=O)N1CCc2c(c(-c3nnc(-c4ccccc4)o3)nn2C)C1 | 958
61 | Cc1csc(-c2cc(S(=O)(=O)N3CCN(C4CCCCC4)CC3)c(C)s2)n1 | 714
62 | Cc1cccc(NC(=O)N2CCCC2c2c(C)noc2C)c1 (centres undefined) | 771

Second part, the molecule after the results:

Row | RP-LC retention time [s] | Compound
63 | 632 | CC(NC(=O)Cn1nc(Cc2cccnc2)c2ccccc2c1=O)c1ccc2c(c1)OCCO2 (centres undefined)
64 | 590 | Cc1cnc(CC2CCN(S(=O)(=O)c3cn(C)cn3)C2)n1Cc1ccccc1 (centres undefined)
65 | 1120 | Cc1cc(Br)ccc1NC(=O)C1CCCN(c2nccnc2Oc2ccccc2)C1 (centres undefined)
66 | 822 | Cc1ccc(N2CC(C(=O)NCC(=O)N3CCCc4ccccc43)CC2=O)cc1C (centres undefined)
67 | 622 | CCN1CCn2cc(C(=O)N3CCN(c4ccccc4Cl)CC3)nc2C1
68 | 798 | CCN1C(=O)c2cccnc2Sc2cc(C(=O)N3CCC(C)CC3)ccc21
69 | 641 | O=C(NCc1cccs1)c1nc(N2CCOCC2)c2ccccc2n1
70 | 891 | O=C(C1CCN(c2ncnc3c2oc2ccccc23)CC1)N1CCN(c2ccc(Cl)cc2)CC1
71 | 774 | O=C(Cn1cc(S(=O)(=O)Cc2cccc(Cl)c2)c2ccccc21)N1CCOCC1
72 | 1100 | Cc1ccc(C)c(NC(=O)c2cn(-c3cc(-c4nc(C5CC5)no4)ccn3)cn2)c1
73 | 612 | COCCC(=O)Nc1ccc2c(c1)Sc1ncccc1C(=O)N2C
74 | 728 | O=C(Nc1cn(-c2ccc(C(=O)N3CCN(c4ccccc4)CC3)cc2)cn1)C1CC1
75 | 1080 | Cc1ccc(NC(=O)Cn2c(=O)cc(-c3nc(C(C)C)no3)c3ccccc32)cc1F
76 | 784 | COc1ccc(CNC(=O)c2cc3c(=O)n(C)c4ccccc4n3n2)c(OC)c1
77 | 728 | COC(=O)c1ccc2c(=O)n(-c3ccc(C)cc3)c(N3CCN(c4ccccn4)CC3)nc2c1
78 | 872 | CN(CCc1noc(COc2ccccc2)n1)C(=O)c1c(F)cccc1F
79 | 730 | Cc1oc(-c2[nH]ncc2C(=O)N2CCCCC2)cc1S(=O)(=O)Nc1ccccc1
80 | 1040 | CC(C)(C)c1noc(-c2ccc(-n3cnc(C(=O)NC4CCCCC4)c3)nc2)n1
81 | 803 | CC(NC(=O)C1CCN(c2cnn(Cc3ccccc3)c(=O)c2)CC1)c1ccccc1 (centres undefined)
82 | 702 | CSc1ccc(CNC(=O)C2CCN(c3cnc4nccnc4c3)CC2)cc1
83 | 1250 | CC1CCN(c2nn(CC(=O)Nc3ccc4c(c3)CCC4)c(=O)c3ccccc23)CC1
84 | 760 | O=C(NCc1ccc(F)cc1)c1ccc2c(c1)nc1n2CCN(c2ccccc2)C1=O
85 | 627 | Cc1cc(C)c2[nH]c3c(c(=O)c2c1)CN(CC(=O)Nc1ccccc1)CC3
86 | 665 | CCCNC(=O)CCc1c(C)n(C)c2nc(-c3ccccc3)nn2c1=O
87 | 674 | CCCC(=O)Nc1ccc(CCc2nc3ccc(C(=O)NCCC(C)C)cc3[nH]2)cc1
88 | 634 | CCOC(=O)N1CCN(C(=O)c2cn(CC(O)c3ccccc3)nn2)CC1 (centres undefined)
89 | 788 | CCCC(=O)Nc1ccc(-n2cnc(C(=O)N3CCN(c4ccccc4F)CC3)c2)nc1
